In the assay the target is human BACE-1 (Homo sapiens, UniProt P56817). Briefly: In Vitro BACE Assay (CEREP, fluorogenic substrate). Conditions: recombinant enzyme; for inhibition at 10 µM: 10 μM test compound, pH 4.5; for IC50: pH 4.5, 60 min at 37° C. Type of assay: biochemical. As for the experimental part: This assay was run by CEREP (Catalog Ref. 761-B, Referred to SOP No. 1C131; ERMOLIEFF, J., LOY, J. A., KOELSCH, G. and TANG, J., Proteolytic activation of recombinant pro-memapsin 2 (pro-BACE) studied with new fluorogenic substrates, Biochemistry, (2000) Vol. 39, p. 12450).
human BACE-1, sequence (P56817 46-501): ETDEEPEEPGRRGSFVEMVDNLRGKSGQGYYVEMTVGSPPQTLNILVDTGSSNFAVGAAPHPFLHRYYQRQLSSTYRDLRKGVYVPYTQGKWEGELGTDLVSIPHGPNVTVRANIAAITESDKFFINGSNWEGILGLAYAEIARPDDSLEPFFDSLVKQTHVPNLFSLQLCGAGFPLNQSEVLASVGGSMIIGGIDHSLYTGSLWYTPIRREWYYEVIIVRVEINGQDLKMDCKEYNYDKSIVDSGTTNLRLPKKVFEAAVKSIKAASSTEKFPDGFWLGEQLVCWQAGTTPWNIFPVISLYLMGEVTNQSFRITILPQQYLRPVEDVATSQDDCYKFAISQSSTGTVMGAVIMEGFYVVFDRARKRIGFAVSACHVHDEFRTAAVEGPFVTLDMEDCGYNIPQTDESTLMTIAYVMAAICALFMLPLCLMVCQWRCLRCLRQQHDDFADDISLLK
More specifically the assay, run at 50 μL in a 96 well plate, evaluated the effect of test compound on the activity of the human BACE-1 quantified by measuring the formation of Mca-S-E-V-N-L-NH2 from Mca-S-E-V-N-L-D-A-E-F-R-K(Dnp)-R-R—NH2, using a recombinant enzyme.
The test compound, reference compound or water (control) was added to a buffer containing 0.09 M sodium acetate (pH 4.5) and 0.25 μg BACE-1. Compound interference with the fluorimetric detection method due to autofluorescence was then checked by measurements at the wavelengths defined to evaluate the enzyme activity. Thereafter, the reaction was initiated by adding 7.5 μM of the substrate Mca-S-E-V-N-L-D-A-E-F-R-K(Dnp)-R—R—NH2 and the mixture was incubated for 60 min at 37° C. For control basal measurement, the substrate was omitted from the reaction mixture. Immediately after the incubation, the fluorescence intensity emitted by the reaction product Mca-S-E-V-N-L-NH2 was measured at λex=320 nm and λem=405 nm using a microplate reader (Ultra, Tecan). The standard inhibitory reference compound was OM99-2, which was tested in each experiment at several concentrations to obtain an inhibition curve from which its IC50 value was calculated.

Inhibition and IC50 data for 18 compounds are collected here from patent US8076358B2, “6-substituted-thio-2-amino-quinoline derivatives useful as inhibitors of β-secretase (BACE)” (Janssen Pharmaceutica NV, priority 2008, dated 2011).

As to `Cc1cc(C)c(CNCc2cccc(Sc3ccc4nc(N)c(CC5CCOCC5)cc4c3)c2)c(C)c1` [Compound 1, 3-(Tetrahydro-pyran-4-ylmethyl)-6-{3-[(2,4,6-trimethyl-benzylamino)-methyl]-phenylsulfanyl}-quinolin-2-ylamine], the inhibition at 10 µM was determined as 96% and the IC50 was 260 nM.
Regarding `Cc1cc(C)c(NCc2cccc(Sc3ccc4nc(N)c(CC5CCOCC5)cc4c3)c2)c(C)c1` [Compound 2], the inhibition at 10 µM came out at 94% and the IC50 was 920 nM.
Turning to `Nc1nc2ccc(Sc3cccc(CNCc4c(F)cccc4F)c3)cc2cc1CC1CCOCC1` [Compound 4], the inhibition at 10 µM was 97% and the half-inhibitory concentration (IC50) is 400 nM.
The corresponding values for `Nc1nc2ccc(Sc3cccc(CNCc4ccccn4)c3)cc2cc1CC1CCOCC1` [Compound 5] are 93% and 800 nM.
For the compound `Cc1ccc(CNCc2cccc(Sc3ccc4nc(N)c(CC5CCOCC5)cc4c3)c2)c(C)c1` [Compound 6], the inhibition at 10 µM amounted to 98% and the half-inhibitory concentration (IC50) was determined as 450 nM.
In the same order, the values of `COc1ccc(CNCc2cccc(Sc3ccc4nc(N)c(CC5CCOCC5)cc4c3)c2)c(OC)c1` [Compound 7] are 90% and 380 nM.
As for `Nc1nc2ccc(Sc3cccc(CNCc4cc(F)ccc4F)c3)cc2cc1CC1CCOCC1` [Compound 8], the inhibition at 10 µM came out at 95% and the IC50 stood at 210 nM.
For the compound `Nc1nc2ccc(Sc3cccc(CNCc4ccc(Cl)cc4Cl)c3)cc2cc1CC1CCOCC1` [Compound 9], the inhibition at 10 µM is 98% and the IC50 is 240 nM.
The corresponding values for `CCOc1ccccc1CNCc1cccc(Sc2ccc3nc(N)c(CC4CCOCC4)cc3c2)c1` [Compound 10] are 95% and 300 nM.
On to `Nc1nc2ccc(Sc3cccc(CNCc4ccc(C(F)(F)F)cc4)c3)cc2cc1CC1CCOCC1` [Compound 12], for which the inhibition at 10 µM worked out at 90% and the 50% inhibitory concentration (IC50) came to 460 nM.
On to `CCCC(NCc1cccc(Sc2ccc3nc(N)c(CC4CCOCC4)cc3c2)c1)C(=O)O` (stereo not drawn) [Compound 13], for which the inhibition at 10 µM was found to be 63% and the 50% inhibitory concentration (IC50) was found to be 2800 nM.
Turning to `Cc1ccc(C)c(COCc2cccc(Sc3ccc4nc(N)c(CC5CCOCC5)cc4c3)c2)c1` [Compound 16], the inhibition at 10 µM came out at 93% and the IC50 stood at 1200 nM.
Regarding `Nc1nc2ccc(Sc3cccc(CSc4cccc(CC(=O)O)c4)c3)cc2cc1CC1CCOCC1` [Compound 17], the inhibition at 10 µM was 94% and the half-maximal inhibitory concentration (IC50) amounted to 330 nM.
In the case of `CCOc1ccccc1CNCc1cccc(Sc2cc3cc(CC4CCOCC4)c(N)nc3cc2F)c1` [Compound 18, 6-{3-[(2-Ethoxy-benzylamino)-methyl]-phenylsulfanyl}-7-fluoro-3-(tetrahydro-pyran-4-ylmethyl)-quinolin-2-ylamine], the inhibition at 10 µM amounted to 95% and the half-inhibitory concentration (IC50) came to 260 nM.
Turning to `CCOc1ccccc1CNCCc1cccc(Sc2ccc3nc(N)c(CC4CCOCC4)cc3c2)c1` [Compound 20], the inhibition at 10 µM turned out to be 98% and the IC50 is 140 nM.
Take `Nc1nc2ccc(Sc3cccc(CCNCc4ccccn4)c3)cc2cc1CC1CCOCC1` [Compound 21]: the inhibition at 10 µM turned out to be 91% and the concentration for half-maximal inhibition (IC50) was determined as 630 nM.
Consider `Cc1cc(C)c(CNCc2cccc(Oc3ccc4nc(N)c(CC5CCOCC5)cc4c3)c2)c(C)c1` [Compound (II-a), 3-(Tetrahydro-pyran-4-ylmethyl)-6-{3-[(2,4,6-trimethylbenzylamino)-methyl]-phenoxy}-quinolin-2-ylamine], for which the inhibition at 10 µM worked out at 98% and the IC50 was found to be 1200 nM.
Take `Cc1cc(C)c(CNCc2cccc(Oc3ccc4nc(N)c(CCC5CCOCC5)cc4c3)c2)c(C)c1` [Compound (II-b), 3-[2-(Tetrahydro-pyran-4-yl)-ethyl]-6-{3-[(2,4,6-trimethylbenzylamino)-methyl]-phenoxy}-quinolin-2-ylamine]: the inhibition at 10 µM stood at 74% and the half-inhibitory concentration (IC50) is greater than 10000 nM.

What is called inhibition is the relative decrease from the control value, in per cent. As a reminder, the IC50 is the concentration that inhibits the measured activity by half.
